Test results reported in the supplement of paper PMC10307832.

Legend:
Assay in all cases: relative viability (nuclei count vs DMSO), 5 days (fraction); higher = more cells survive
Motesanib + OSI-027 = compound: CC1(C)CNc2cc(NC(=O)c3cccnc3NCc3ccncc3)ccc21 [Motesanib] + COc1cccc2cc(-c3nc([C@H]4CC[C@H](C(=O)O)CC4)n4ncnc(N)c34)[nH]c12 [OSI-027] (partner 0.5 µM)
Summary of the method: (§1)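 After 5 days of treatment, lung cancer cells in 1536-well plates were fixed and stained in a single step (final 0.05% Triton X-100, 1% formaldehyde, 1 ug/ml Hoechst) and their nuclei counted on 4× images. Treatment had been applied by pin tool the day after seeding as one drug alone or as a fixed anchor-drug dose with five library-drug doses (not always all listed) in √10 steps. Relative viability is the nuclei count of treated wells divided by that of vehicle wells, and values are medians of duplicate plates.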

[1] = compound: C[C@@]1(C(=O)Nc2ccc(F)nc2)CCCN1c1nc(Nc2cc(C3CC3)n[nH]2)c2cccn2n1 + CC1(C)CCC(c2ccc(Cl)cc2)=C(CN2CCN(c3ccc(C(=O)NS(=O)(=O)c4ccc(N[C@H](CCN5CCOCC5)CSc5ccccc5)c(S(=O)(=O)C(F)(F)F)c4)cc3)CC2)C1 [Navitoclax] (partner 0.5 µM)
Summary of the method: as §1

Motesanib + Vorinostat = compound: CC1(C)CNc2cc(NC(=O)c3cccnc3NCc3ccncc3)ccc21 [Motesanib] + O=C(CCCCCCC(=O)Nc1ccccc1)NO [Vorinostat] (partner 1 µM)
Summary of the method: as §1

[2] = compound: C[C@@]1(C(=O)Nc2ccc(F)nc2)CCCN1c1nc(Nc2cc(C3CC3)n[nH]2)c2cccn2n1 + C[C@]1(O)C[C@@H](c2nc(-c3ccc4ccc(-c5ccccc5)nc4c3)c3c(N)nccn32)C1 [Linsitinib] (partner 1 µM)
Summary of the method: as §1

| Cell Line | relative viability (Motesanib + OSI-027; first compound 0.01 µM) | relative viability (Motesanib + OSI-027; first compound 0.03162 µM) | relative viability (Motesanib + OSI-027; first compound 0.1 µM) | relative viability (Motesanib + OSI-027; first compound 0.3162 µM) | relative viability (Motesanib + OSI-027; first compound 1 µM) | relative viability ([1]; first compound 0.04 µM) | relative viability ([1]; first compound 0.1265 µM) | relative viability ([1]; first compound 0.4 µM) | relative viability ([1]; first compound 1.265 µM) | relative viability (Motesanib + Vorinostat; first compound 0.01 µM) | relative viability (Motesanib + Vorinostat; first compound 0.03162 µM) | relative viability (Motesanib + Vorinostat; first compound 0.1 µM) | relative viability (Motesanib + Vorinostat; first compound 0.3162 µM) | relative viability (Motesanib + Vorinostat; first compound 1 µM) | relative viability ([2]; first compound 0.04 µM) | relative viability ([2]; first compound 0.1265 µM) | relative viability ([2]; first compound 0.4 µM) | relative viability ([2]; first compound 1.265 µM) |
| --- | --- | --- | --- | --- | --- | --- | --- | --- | --- | --- | --- | --- | --- | --- | --- | --- | --- | --- |
| NCI-H1793 | 0.26 | 0.272 | 0.261 | 0.284 | 0.302 | 0.31 | 0.304 | 0.378 | 0.351 | 0.836 | 0.776 | 0.725 | 0.892 | 0.757 | 0.863 | 0.961 | 0.573 | 0.992 |
| NCI-H1915 | 0.575 | 0.72 | 0.625 | 0.631 | 0.632 | 0.774 | 0.767 | 0.836 | 0.779 | 0.603 | 0.489 | 0.479 | 0.544 | 0.527 | 1.08 | 1.08 | 1.08 | 1.16 |
| NCI-H1944 | 0.37 | 0.424 | 0.438 | 0.475 | 0.427 | 0.991 | 0.947 | 0.981 | 1.08 | 0.52 | 0.562 | 0.51 | 0.634 | 0.537 | 1.18 | 1.2 | 1.1 | 1.3 |
| NCI-H1975 | 0.66 | 0.702 | 0.747 | 0.677 | 0.669 | 0.988 | 1.06 | 0.773 | 0.765 | 0.738 | 0.616 | 0.707 | 0.739 | 0.652 | 0.913 | 0.922 | 0.933 | 0.727 |
| NCI-H1993 | 0.526 | 0.554 | 0.552 | 0.543 | 0.557 | 0.692 | – | 0.671 | 0.716 | 0.63 | 0.757 | 0.881 | 0.746 | 0.813 | 0.705 | – | 0.723 | 0.733 |
| NCI-H2009 | 0.646 | 0.689 | 0.713 | 0.593 | 0.623 | 1.26 | 1.23 | 1.11 | 1.29 | 0.671 | 0.636 | 0.823 | 0.729 | 0.71 | 1.2 | 1.2 | 1.13 | 1.19 |
| NCI-H2023 | 0.453 | 0.374 | 0.373 | 0.404 | 0.429 | 0.89 | 0.703 | 0.654 | 0.702 | 0.729 | 0.606 | 0.615 | 0.838 | 0.723 | 0.699 | 0.619 | 0.537 | 0.657 |
| NCI-H2085 | 0.812 | 0.892 | 0.753 | 0.67 | 0.691 | 1.22 | 1.07 | 0.984 | 1.05 | 0.825 | 0.823 | 0.821 | 0.824 | 0.866 | 0.877 | 0.873 | 0.809 | 0.822 |
| NCI-H2087 | 0.427 | 0.544 | 0.585 | 0.705 | 0.573 | 0.882 | 0.969 | 0.854 | 0.931 | – | – | 0.561 | 0.764 | 0.791 | 0.933 | 0.935 | 0.962 | 0.932 |
